The text below walks through data of US10888569B1, “Methods and compositions for treating cancer” (THE UNIVERSITY OF CHICAGO, priority 2017, dated 2021).

Data set [1] has as its system TNBC cells (BM1, MB436, MB468, BT549). It counts as cell-based, human. The procedure:
TNBC cell lines stably knocked down with lenti-viral shRNA for BACH1 were constructed and maintained as described previously. Gene expression analysis of cultured cells and isolated tumor tissues used a Reverse transcriptase kit followed by Roche96 cycler for real time mRNA quantification and Lycor imaging for immunoblotting. For in vitro cell viability assay with mitochondrial inhibitors, TNBC cells (2×10^3-5×10^3/well) seeded on 96 well plates overnight with culture media (DMEM with 25 mM Glucose) were treated with inhibitors in fresh culture media (DMEM with 1.25 mM Glucose) for 48 and 72 hours and stained with calcein AM and/or monitored for cellular confluency using an IncuCyte Zoom Live Cell Analysis system. Extracellular flux analyzer was used to assay metabolic phenotypes of BACH1-depleted TNBC cells and TNBC cells that are treated with hemin overnight before assays. For bioinformatics analysis using primary patient data cohort (TCGA), cBioportal and R were used.
(§1) Breast cancer cells (5,000 cells/well) and non-malignant mammary epithelial cells (8,000 cells/well) were plated on 96-well plates to observe growth of cells every 4 hours by phase contrast imaging using an IncuCyte Zoom Live Cell Analysis system (Essen Bioscience). After 24 hours of plating, inhibitors were added and monitored until control cells reached 100% confluent. To determine cell viability, cells were seeded in black walled 96-well plates overnight and treated with inhibitors for 48 hours. Calcein AM (R&D system) in PBS was then added and incubated for 1 hour at 37° C. Fluorescence was determined using a Victor3 plate reader (PerkinElmer) with excitation at 420 nm and emission at 520 nm. The absorbance was used to reflect live cell numbers and was normalized to those in control with vehicles and shown as relative viability (%).

Data set [2] concerns non-malignant mammary epithelial cells (184A1 and MCF10A). Description: Cell viability (calcein AM) of non-malignant mammary epithelial cells. It counts as cell-based, human. The note with it: 48 hours. The procedure: as §1
Data set [3] concerns MB436-shBACH1 and BM1-shBACH1 (and shCont) xenograft TNBC tumors. The data set can be described thus: BACH1-depleted xenograft TNBC tumors treated with metformin. The data set is classed as in vivo, mouse.
Description: (§2) Two million human breast cancer cells (MDA-MB-436-shCont, MDA-MB-436-shBACH1, BM1-shBACH1, or BM1-shCont) in 100 μl PBS were injected into the mammary fat pads of 5 to 6 weeks old athymic nude female mice (Charles River Laboratories). When tumors were about 20-30 or 50 mm^3 in volume, hemin (50 mg/kg/day) or vehicle (20 mM NaOH in phosphate buffered saline) was injected intraperitoneally for 10 days prior to metformin treatment for 8 weeks. Metformin (200 mg/kg for MDA-MB-436 cells or 300 mg/kg for BM1-cells) was provided in drinking water ad libidum. Tumor growth was monitored weekly by caliper measurement in two dimensions to generate ellipsoid volumes using an equation of vol.=0.4×(L×W^2).
Data set [4] has as its system C3(1)-TAg tumors. The data set can be described thus: Transgenic TNBC mouse model C3(1)-TAg treated with metformin. It counts as in vivo. The settings on record: metformin 200 mg/kg/day, absence of hemin; very low BACH1 expression. As for the experimental part: For a transgenic TNBC mouse model, C3(1)-TAg, mice (n=5/group) were treated with metformin (200 mg/kg/day), after 10 days of mice developed palpable tumors (about 25 mm^3), at age of 15 weeks. Tumor volume was assayed by caliper measurement twice per week.

The subject of data set [5] is MB436 xenograft tumors. The settings on record: hemin 50 mg/kg/day i.p. 10 consecutive days prior to metformin 200 mg/kg.
Description: as §2
The conditions of data set [6]: metformin 200-300 mg/kg; cited from earlier work.
The conditions of data set [7]: in vivo; cited from earlier work.
Data set [8] relates to NAD+/NADH in shBACH1 TNBC cells. Description: NAD/NADH-Glo measurement. The data set is classed as cell-based, human. The settings on record: pyruvate 2.5 mM added to growth media. The procedure:
NAD(H) was measured using the NAD/NADH-Glo Assay kit (Promega) in accordance with the manufacturer's protocol. Lactate produced by cells were measured using the media that 5×10^5 cells were plated on 6 well plates in 2 ml media containing 1.25 mM glucose for 3 days or overnight. Harvested media was used for L-Lactate Assay Kit I (Eton Bioscience). For glucose consumption measurement, media from the cells cultured in 12 well plates were freshly replenished with media containing 5 mM glucose and collected after 21 hours for glucose measurement using Glucose Assay Kit I (Eton Bioscience).

A short description of data set [9]: Cell viability (calcein AM) of non-malignant mammary epithelial cells. The data set is classed as cell-based, human. The settings on record: human, non-malignant mammary epithelial cells (184A1 and MCF10A), read-out: reduction of cell viability of non-malignant mammary epithelial cells. The procedure:
as §1

“Also recorded” adds a separate entry of the source.

Regarding `CN(C)C(=N)N=C(N)N` [metformin], the “metformin response on overexpression of wt BACH1 in MB436-shBACH1 cells” value in data set [1] is given as “generated a metformin-resistance phenotype”. Moreover, in data set [1] (BM1-shBACH1 and MB436-shBACH1 cells), the “resistance to metformin on expression of Mut-Bach1 following heme treatment” value was “restored resistance to metformin”. For the same compound, the “sensitivity to metformin on BACH knockdown” value in data set [1] (MB436 or BM1 cells) is “increased sensitivity to metformin treatment”. Moreover, the “inhibitory effect of metformin after addition of pyruvate to growth media” value in [1] (pyruvate 2.5 mM, shBACH1 TNBC cells) is listed as “completely rescued the inhibitory effect of metformin”. For the same compound, the “metformin resistance and cell growth after silencing COX15 or UQCRC1” value in [1] (siRNA for COX15 or UQCRC1 in BM1-shBACH1 cells) was “completely restored metformin resistance”. Also, the “viability of non-malignant mammary epithelial cells” value in data set [2] is on record as “did not alter the viability”. For the same compound, the “growth of BM1 xenograft tumors expressing shBACH1” value in [3] (metformin 300 mg/kg/day) was “Comparable results”. Moreover, the “growth of TNBC tumors stably expressing shBACH1” value in [3] (metformin 200-300 mg/kg in drinking water, within a week of administration, MB436-shBACH1) is on record as “drastically suppressed; also recorded: reduction of MB436-shBACH1 tumor volume”. For the same compound, the control tumor growth result in data set [3] (metformin alone, 200-300 mg/kg in drinking water, control (shCont) xenografts) is given as “no effect on control tumor growth”. Moreover, the tumor-free mice entry in data set [3] (shBACH1 MB436 xenograft mice following metformin treatment) was “a significant fraction of shBACH xenograft mice were tumor-free; also recorded: a significant fraction of shBACH1 MB436 xenograft mice were tumor-free”. In addition, the “sensitivity of C3(1)-TAg mice tumors” value in data set [4] is on record as “highly sensitive to metformin”. Also, the “breast tumor growth / volume” value in [5] is reported as “neither hemin nor metformin alone significantly altered tumor growth”. For the same compound, in data set [6], the “mouse tumor and plasma concentrations” value is 3 to 12 µM. Moreover, in [7], the “levels in metformin-treated human diabetic patients” value is around 10 µM.
For the compound `CC(=O)C(=O)O` [pyruvate], in [8], the “NAD+ levels” value is “increased”.
Regarding `C=C(C)[C@H]1Cc2c(ccc3c2O[C@@H]2COc4cc(OC)c(OC)cc4[C@@H]2C3=O)O1` [rotenone], the cytotoxicity at 48 h in [9] was 25 to 50%.
